The results in this text go back to patent US20240409548A1, “MODULATORS OF THE BETA-3 ADRENERGIC RECEPTOR USEFUL FOR THE TREATMENT OR PREVENTION OF DISORDERS RELATED THERETO” (Arena Pharmaceuticals, Inc., priority 2021, published 2024).

For series [1] the following is noted: slurry, ambient temperature. How it is done: (§1) Compound C was slurried in various solvents (Table 1) for 2 weeks at ambient temperature (21° C.±1° C.). […] Solubility was determined after 1 day of equilibration and slurries were allowed to stir for 2 weeks. The temperature was monitored and determined to be 21° C.±1° C. for the duration of the study. At the end of 2 weeks, the slurries were removed from stirring and solids were isolated by centrifuge filtration using 0.45-μm nylon filters, allowed to air-dry overnight, and then analyzed by PXRD. Selected samples were also analyzed by TGA and DSC.
X-ray diffraction analysis was performed using a PANalytical. X′Pert PRO MPD powder X-ray diffractometer (EQ0233). Samples were prepared by placing several milligrams of compound onto a sample holder and smoothing flat.

A short description of series [2]: Dynamic moisture sorption (DMS). It is filed as physicochemical. As for the experimental part: Dynamic Moisture Sorption analysis was performed using a TA Instruments Q5000 SA (EQ2418). The sample was prepared for DMS analysis by placing ˜5 mg of compound into a tared sample holder.
For series [3] the following is noted: for Solubility (mM) / Solubility (mg/mL): 21° C.±1° C. How it is done: as §1
Solubility was determined by gravimetric analysis after ˜24 hours of equilibration at ambient temperature (21° C.±1° C.). Samples were separated by centrifuge filtration using an Eppendorf 5417C model centrifuge. Suspension samples were placed into centrifuge filter tubes with 0.45-μm nylon membrane filter and spun at 10000 rpm for 1 minute. Filtrate aliquots of 10 to 20 μL were placed into separate thermogravimetric analyzer pans, previously tared on a TA Instruments Q5000. The filtrates were dried to achieve dry residual solid weights. Solubility was calculated by dividing the dry residual weight by the aliquot volume.

Series [4] can be described thus: Aqueous solubility at various pH values (pH-solubility fit). The settings on record: for aqueous solubility: A=active free base. How it is done: Solubility of Compound A in aqueous media was measured at various pH values. The conjugate acid ionization constant and intrinsic solubility of the free base were derived by fitting the measured pH-solubility data to the slope-intercept form of the Henderson-Hasselbalch equation for monobasic molecules.

The mark [5] stands for this setting: dimethyl sulfoxide (remained a solution), ~24 hours.
The mark [6] stands for this setting: methyl t-butyl ether, ~24 hours equilibration.
Setting [7] is: water/acetone (1:20), ~24 hours.
[8] abbreviates: water/acetonitrile (1:20), ~24 hours.
Where [9] appears, read: water/isopropyl alcohol (1:20), ~24 hours.

In brackets after ≈: the same amount, converted by molar mass. Read-outs that look alike come from different tables or passages of the source.

One may read the solubility as the dissolved amount per volume that the medium holds. A lower solubility goes with little dissolved substance. Consider `CCn1cc(S(=O)(=O)N2CCC3(CC2)C[C@@H](NC[C@H](O)COc2cccc(S(C)(=O)=O)c2)CO3)c(=O)c2ccccc21.CCn1cc(S(=O)(=O)N2CCC3(CC2)C[C@@H](NC[C@H](O)COc2cccc(S(C)(=O)=O)c2)CO3)c(=O)c2ccccc21.CS(=O)(=O)O.CS(=O)(=O)O.O` [Compound A, 1-ethyl-3-((R)-3-((S)-2-hydroxy-3-(3-(methylsulfonyl)phenoxy)propylamino)-1-oxa-8-azaspiro[4.5]decan-8-ylsulfonyl)quinolin-4(1H)-one mesylate hemihydrate Form 2], for which the “crystal form stability / conversion” value in series [1] (listed as Form 2) is “does not convert to any other form at ambient temperature”. Further, in series [2] (DMS scan 0 to 90% RH, 25° C.), the hygroscopicity entry is given as “non-hygroscopic”. In series [2] (at 2500, after essentially fully rehydrating), the “weight change between 30% RH and 90% RH (DMS)” value is reported as approximately 0.1%. Moreover, in series [2] (condition 4000 and ~1% RH until steady weight in ~1 hour), the “total weight change of water during the drying step (DMS)” value is given as “about 0.35%”. Moreover, the “Solubility (mM)” value in series [3] (Acetone, ~24 hours) is given as 0.61 mM; in series [3] (Acetonitrile, ~24 hours), 2.31 mM; in series [3] (Tetrahydrofuran, ~24 hours) it was 0.39 mM; in series [3] (Water, ~24 hours), 52.6 mM; in series [3] (setting [5]), more than 610 mM; in series [3] (ethyl acetate, ~24 hours), 0.88 mM. Moreover, the “Solubility (mM)” value in series [3] (ethyl alcohol, ~24 hours) was determined as 1.03 mM; in series [3] (isopropyl alcohol, ~24 hours), 1.01 mM; in series [3] (methyl alcohol, ~24 hours) it was 21.6 mM; in series [3] (methyl ethyl ketone, ~24 hours), 0.99 mM; in series [3] (setting [6]), 0.76 mM; in series [3] (setting [7]), 47.3 mM. Further, the “Solubility (mM)” value worked out at 97.0 mM in series [3] (setting [8]) and 29.4 mM in series [3] (setting [9]). Further, the “Solubility (mg/mL)” value was 0.44 mg/mL in series [3] (Acetone, ~24 hours); 1.66 mg/mL in series [3] (Acetonitrile, ~24 hours); 0.28 mg/mL in series [3] (Tetrahydrofuran, ~24 hours); 30.5 mg/mL in series [3] (Water, ~24 hours); more than 437 mg/mL in series [3] (setting [5]); 0.63 mg/mL in series [3] (ethyl acetate, ~24 hours). Also, the “Solubility (mg/mL)” value in series [3] (ethyl alcohol, ~24 hours) was determined as 0.73 mg/mL; in series [3] (isopropyl alcohol, ~24 hours) it was 0.72 mg/mL; in series [3] (methyl alcohol, ~24 hours), 15.5 mg/mL; in series [3] (methyl ethyl ketone, ~24 hours), 0.71 mg/mL; in series [3] (setting [6]) it was 0.54 mg/mL; in series [3] (setting [7]), 33.9 mg/mL. Moreover, the “Solubility (mg/mL)” value amounted to 69.5 mg/mL in series [3] (setting [8]) and 21.2 mg/mL in series [3] (setting [9]). The solubility in series [3] (in methanol, dimethyl sulfoxide, and aqueous systems (high solubility)) is listed as more than 20 mM; in series [3] (in most organic solvents (low solubility)), not above 1 mM. Besides, the aqueous solubility result is given as “about 28 mgA/mL” in series [4] and 28 mgA/mL in series [4] (listed as mesylate salt). Further, the pHmax in series [4] (associated with the mesylate salt) is on record as 5.7.

Take `CCn1cc(S(=O)(=O)N2CCC3(CC2)C[C@@H](NC[C@H](O)COc2cccc(S(C)(=O)=O)c2)CO3)c(=O)c2ccccc21.CCn1cc(S(=O)(=O)N2CCC3(CC2)C[C@@H](NC[C@H](O)COc2cccc(S(C)(=O)=O)c2)CO3)c(=O)c2ccccc21.CS(=O)(=O)O.CS(=O)(=O)O.O` [Compound B, 1-ethyl-3-((R)-3-((S)-2-hydroxy-3-(3-(methylsulfonyl)phenoxy)propylamino)-1-oxa-8-azaspiro[4.5]decan-8-ylsulfonyl)quinolin-4(1H)-one mesylate hemihydrate Form 1]: the “crystal form stability / conversion” value in series [1] (listed as Form 1) was “converts to Form 2 in water”.

Broadly, the pKa is the pH at which an ionisable group is half protonated. The compound `CCn1cc(S(=O)(=O)N2CCC3(CC2)C[C@@H](NC[C@H](O)COc2cccc(S(C)(=O)=O)c2)CO3)c(=O)c2ccccc21` [Compound D, 1-ethyl-3-((R)-3-((S)-2-hydroxy-3-(3-(methylsulfonyl)phenoxy)propylamino)-1-oxa-8-azaspiro[4.5]decan-8-ylsulfonyl)quinolin-4(1H)-one] returned a pKa in series [4] of 7.44. Further, the concentration in solution in series [4] (aqueous buffer) (solubility) came to 530 µg/mL (≈ 855 µM).
